Results as given in patent EP2058306A1, “Heteroaryl-substituted 2-pyridinyl-methylamine derivatives” (SCHWARZ PHARMA AG, priority 2007, dated 2009).
Like-named read-outs stand apart in the source and are kept apart here.

What was measured:
alpha-1 = assay: radioligand binding assay, adrenergic alpha-1 receptor, [3H]prazosin; settings: porcine cortical membranes, mean of two to five experiments in triplicate, read-out: Ki alpha1
Protocol: (§1) The investigation of receptor binding to the serotonin and adrenergic receptors was done according to a published procedure (Heindl, C. et al., Tetrahedron: Asymmetry (2003), 14, 3141-3152). In detail, for the determination of the binding properties to serotonin receptors membrane preparations from porcine cortex was incubated with the 5-HT1A selective radioligand [^3H]WAY 100635 or with the 5-HT2 selective compound [^3H]ketanserin. The measurement of alpha-1 and alpha-2 receptor binding was achieved when utilizing porcine cortical membranes and the selective radioligands [^3H]prazosin (for alpha-1) and [^3H]RX821002 in an assay similar to that described above.
(§2) The results of the binding experiments are summarized in Table 1 as mean values of two to five individual experiments each done in triplicate and expressed as Ki values in nM.

human D2long, D2short = human D2long, D2short (Homo sapiens, UniProt P14416); assay: biochemical; format: binding
Protocol: (§3) These experiments have been done according to methods which are described in literature (Hübner, H. et al., J. Med. Chem. (2000), 43, 7562). For the determination of binding affinity to the receptors of the dopamine D2 family membranes were established carrying the human D2long, D2short, D3 or D4.4 receptor subtype stably expressed in Chinese hamster ovary cell lines. In principle, the binding experiments started when incubating an appropriate amount of membrane with the radioligand [^3H]spiperone and the particular test compounds used in a wide range of different concentrations from subnanomolar up to micromolar ones.

5-HT1A = target: T1, 5-HT1A (Sus scrofa, UniProt A0A4X1UTF5); assay: radioligand binding assay, serotonin 5-HT1A receptor, [3H]WAY 100635
T1 construct: membrane preparations from porcine cortex; from tissue; host or cells: porcine cortex
T1 sequence (A0A4X1UTF5 1-422): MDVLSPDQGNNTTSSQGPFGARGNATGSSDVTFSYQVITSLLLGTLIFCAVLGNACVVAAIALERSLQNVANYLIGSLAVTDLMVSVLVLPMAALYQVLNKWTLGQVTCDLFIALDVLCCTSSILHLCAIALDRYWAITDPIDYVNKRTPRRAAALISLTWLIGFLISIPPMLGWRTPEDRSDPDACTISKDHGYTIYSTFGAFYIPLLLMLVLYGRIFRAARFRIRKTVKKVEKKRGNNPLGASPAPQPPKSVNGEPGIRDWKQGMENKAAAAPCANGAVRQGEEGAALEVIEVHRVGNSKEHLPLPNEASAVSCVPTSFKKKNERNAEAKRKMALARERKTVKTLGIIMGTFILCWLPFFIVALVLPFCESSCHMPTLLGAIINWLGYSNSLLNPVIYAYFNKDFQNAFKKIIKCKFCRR
Protocol: as §1, §2

5-HT2 = target: T2, 5-HT2 (Sus scrofa, UniProt P50129); assay: radioligand binding assay, serotonin 5-HT2 receptor, [3H]ketanserin; design: species or system porcine
T2 construct: membrane preparations from porcine cortex; from tissue; host or cells: porcine cortex

human D3 = human D3 (Homo sapiens, UniProt P35462); assay: radioligand binding assay, dopamine D3 receptor, [3H]spiperone
Protocol: as §3

dopamine D1 receptor = target: T3, dopamine D1 receptor (Sus scrofa, UniProt P50130); assay: radioligand binding assay, dopamine D1 receptor, [3H]SCH 23390
T3 construct: native membrane preparations from porcine striatum; from tissue; host or cells: porcine striatum
Excerpt: as §3, with “Biological activity of the compounds has been determined in radioligand binding assays. These” for “These”, “ones. In the same way, binding affinities of the test compounds to the dopamine D1 receptor were determined when using native membrane preparations from porcine striatum and the D1 selective radioligand [^3H]SCH 23390.” for “ones.”
as §2

human D4.4 = target: T4, human D4.4 (Homo sapiens, UniProt P21917); assay: radioligand binding assay, dopamine D4.4 receptor, [3H]spiperone
T4 sequence (P21917 1-419): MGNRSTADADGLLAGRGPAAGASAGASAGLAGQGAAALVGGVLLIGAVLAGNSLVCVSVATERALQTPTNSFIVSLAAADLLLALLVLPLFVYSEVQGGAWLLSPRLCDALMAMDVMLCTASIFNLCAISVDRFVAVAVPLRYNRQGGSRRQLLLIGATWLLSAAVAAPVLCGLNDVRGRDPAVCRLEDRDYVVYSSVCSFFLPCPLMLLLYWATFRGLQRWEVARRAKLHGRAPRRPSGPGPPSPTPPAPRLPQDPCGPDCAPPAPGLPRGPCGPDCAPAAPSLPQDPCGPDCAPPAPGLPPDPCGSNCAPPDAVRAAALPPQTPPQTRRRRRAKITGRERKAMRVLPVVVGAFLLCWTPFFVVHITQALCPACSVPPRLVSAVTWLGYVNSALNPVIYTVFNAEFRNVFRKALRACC
Excerpt: as §3, with “Biological activity of the compounds has been determined in radioligand binding assays. These” for “These”, “ones. In the same way, binding affinities of the test compounds to the dopamine D1 receptor were determined when using native membrane preparations from porcine striatum and the D1 selective radioligand [^3H]SCH 23390.” for “ones.”
as §2

[1] = CHO cell membranes, [3H]spiperone; mean of two to five experiments in triplicate; read-out: Ki D2
[2] = porcine cortex membranes, mean of two to five experiments in triplicate, read-out: Ki 5-HT1a
[3] = CHO cell membranes, mean of two to five experiments in triplicate, read-out: Ki D3
[4] = porcine striatum membranes, mean of two to five experiments in triplicate, read-out: Ki D1
[5] = CHO cell membranes, mean of two to five experiments in triplicate, read-out: Ki D4.4
[6] = porcine cortex membranes, [3H]ketanserin, mean of two to five experiments in triplicate, read-out: Ki 5-HT2

T3 sequence (P50130 whole entry): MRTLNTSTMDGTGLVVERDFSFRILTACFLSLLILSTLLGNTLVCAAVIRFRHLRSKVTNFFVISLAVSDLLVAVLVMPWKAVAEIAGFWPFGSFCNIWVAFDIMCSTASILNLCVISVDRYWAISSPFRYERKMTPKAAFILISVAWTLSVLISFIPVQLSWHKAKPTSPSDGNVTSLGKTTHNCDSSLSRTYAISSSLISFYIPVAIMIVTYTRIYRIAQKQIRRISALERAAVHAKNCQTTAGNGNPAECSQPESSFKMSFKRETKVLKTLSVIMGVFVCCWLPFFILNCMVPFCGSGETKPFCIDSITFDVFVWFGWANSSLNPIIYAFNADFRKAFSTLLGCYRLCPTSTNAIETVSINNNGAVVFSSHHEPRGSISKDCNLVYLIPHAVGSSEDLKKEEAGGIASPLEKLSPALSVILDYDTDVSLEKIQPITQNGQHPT
Sequence of human D2long, D2short (P14416 whole entry): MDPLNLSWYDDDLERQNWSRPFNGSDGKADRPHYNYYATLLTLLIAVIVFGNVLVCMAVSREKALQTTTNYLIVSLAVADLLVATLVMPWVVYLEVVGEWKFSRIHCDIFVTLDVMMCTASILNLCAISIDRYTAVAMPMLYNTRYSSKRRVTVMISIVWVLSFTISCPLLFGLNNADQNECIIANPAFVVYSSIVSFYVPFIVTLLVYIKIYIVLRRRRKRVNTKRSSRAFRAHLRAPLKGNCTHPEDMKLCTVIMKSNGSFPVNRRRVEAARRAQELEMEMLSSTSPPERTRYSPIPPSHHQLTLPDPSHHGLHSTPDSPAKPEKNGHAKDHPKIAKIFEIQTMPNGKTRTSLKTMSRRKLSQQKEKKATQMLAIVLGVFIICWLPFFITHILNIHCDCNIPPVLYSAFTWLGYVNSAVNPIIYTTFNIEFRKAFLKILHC
Sequence of human D3 (P35462 whole entry): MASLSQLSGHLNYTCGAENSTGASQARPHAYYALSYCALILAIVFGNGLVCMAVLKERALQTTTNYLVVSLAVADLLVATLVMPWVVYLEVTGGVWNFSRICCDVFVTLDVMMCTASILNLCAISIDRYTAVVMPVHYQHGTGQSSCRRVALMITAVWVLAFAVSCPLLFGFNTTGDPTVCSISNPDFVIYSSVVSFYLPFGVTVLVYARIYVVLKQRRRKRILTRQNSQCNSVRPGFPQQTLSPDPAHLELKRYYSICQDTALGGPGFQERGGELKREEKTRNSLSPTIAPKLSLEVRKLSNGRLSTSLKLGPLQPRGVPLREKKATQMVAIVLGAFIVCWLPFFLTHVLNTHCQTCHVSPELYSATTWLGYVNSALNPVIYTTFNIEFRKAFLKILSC
T2 sequence (P50129 whole entry): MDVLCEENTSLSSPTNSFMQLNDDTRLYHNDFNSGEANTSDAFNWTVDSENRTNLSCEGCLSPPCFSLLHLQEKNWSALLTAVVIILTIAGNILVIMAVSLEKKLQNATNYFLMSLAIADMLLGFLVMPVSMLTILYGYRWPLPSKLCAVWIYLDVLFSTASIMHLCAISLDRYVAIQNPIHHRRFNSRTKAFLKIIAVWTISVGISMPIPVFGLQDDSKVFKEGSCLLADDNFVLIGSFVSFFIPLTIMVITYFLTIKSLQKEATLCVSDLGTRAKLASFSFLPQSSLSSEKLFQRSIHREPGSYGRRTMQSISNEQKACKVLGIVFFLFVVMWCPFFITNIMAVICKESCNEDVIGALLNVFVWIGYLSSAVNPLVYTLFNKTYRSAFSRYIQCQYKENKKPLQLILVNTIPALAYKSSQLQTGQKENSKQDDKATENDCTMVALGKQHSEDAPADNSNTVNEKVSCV

SMILES	Ki (alpha-1) [µM]	Ki (human D2long, D2short; [1]) [µM]	Ki (5-HT1A; [2]) [µM]	Ki (5-HT2) [µM]	Ki (human D3; [3]) [µM]	Ki (dopamine D1 receptor; [4]) [µM]	Ki (human D4.4; [5]) [µM]	Ki (5-HT2; [6]) [µM]	Ki (human D2long, D2short; read-out: Ki D2; CHO cell membranes, [3H]spiperone; mean of two to five experiments in triplicate) [µM]	Ki (5-HT1A; read-out: Ki 5-HT1a, porcine cortex membranes, mean of two to five experiments in triplicate) [µM]	Ki (human D3; read-out: Ki D3, CHO cell membranes, mean of two to five experiments in triplicate) [µM]	Ki (dopamine D1 receptor; read-out: Ki D1, porcine striatum membranes, mean of two to five experiments in triplicate) [µM]	Ki (human D4.4; read-out: Ki D4.4, CHO cell membranes, mean of two to five experiments in triplicate) [µM]
Cc1ccc(CNCC2(F)CCN(C(=O)c3ccco3)CC2)nc1 [Example E31, [4-Fluoro-4-[[(5-methylpyridin-2-ylmethyl)amino]methyl]piperidin-1-yl]-furan-2-yl-methanone]	> 5	> 5	0.05 to 0.5	–	> 5	> 5	> 5	> 5	–	–	–	–	–
Cc1ccc(CNCC2(F)CCN(C(=O)c3ccoc3)CC2)nc1 [Example E33, [4-Fluoro-4-[[(5-methylpyridin-2-ylmethyl)amino]methyl]piperidin-1-yl]-furan-3-yl-methanone]	> 5	> 5	0.05 to 0.5	–	> 5	> 5	> 5	> 5	–	–	–	–	–
Cc1ccc(CNCC2(F)CCN(C(=O)c3cc4cc(Br)ccc4s3)CC2)nc1 [Example E24, 5-Bromobenzo[b]thien-2-yl-[4-fluoro-4-[[(5-methylpyridin-2-ylmothyl)amino]methyl]piporidin-1-yl]-methanone]	0.05 to 0.5	> 5	0.05 to 0.5	> 5	0.501 to 5	> 5	0.501 to 5	–	–	–	–	–	–
Cc1ccc(CNCC2(F)CCN(C(=O)c3cc4ccccc4o3)CC2)nc1 [Example E35, Benzo[b]furan-2-yl-[4-fluoro-4-[[(5-methylpyridin-2-ylmothyl)amino]methyl]piperidin-1-yl]-methanone]	0.501 to 5	> 5	0.05 to 0.5	> 5	> 5	> 5	0.501 to 5	–	–	–	–	–	–
Cc1ccc(CNCC2(F)CCN(C(=O)c3ccc[nH]3)CC2)nc1 [Example E37, [4-Fluoro-4-[[(5-methylpyridin-2-ylmethyl)amino]methyl]piperidin-1-yl]-pyrrol-2-yl-methanone]	–	–	0.501 to 5	–	–	–	–	> 5	–	–	–	–	–
Cc1ccc(CNCC2(F)CCN(C(=O)c3cc4ccccc4s3)CC2)nc1 [Example E23, Benzo[b]thien-2-yl-[4-fluoro-4-[[(5-methyl-pyridin-2-ylmethyl)amino]methyl]-piperidin-1-yl]-methanone]	0.501 to 5	> 5	0.05 to 0.5	–	> 5	> 5	0.501 to 5	> 5	–	–	–	–	–
Cc1ccc(CNCC2(F)CCN(C(=O)c3sccc3-n3cccc3)CC2)nc1 [Example E17, [4-Fluoro-4-[[(5-methylpyridin-2-ylmethyl)amino]methyl]piperidin-1-yl]-3-pyrrol-1-ylthion-2-yl-methanone]	0.501 to 5	> 5	0.05 to 0.5	> 5	> 5	> 5	0.501 to 5	–	–	–	–	–	–
Cc1ccc(CNCC2(F)CCN(C(=O)c3coc4ccccc34)CC2)nc1 [Example E36]	–	–	–	–	–	–	–	–	> 5	< 0.05	> 5	> 5	0.501 to 5
Cc1ccc(CNCC2(F)CCN(C(=O)c3cc[nH]n3)CC2)nc1 [Example E38]	–	–	0.501 to 5	> 5	–	–	–	–	–	–	–	–	–

More lines, main results first:

Ki (alpha-1) [µM]	Ki (human D2long, D2short; [1]) [µM]	Ki (5-HT1A; [2]) [µM]	Ki (5-HT2) [µM]	Ki (human D3; [3]) [µM]	Ki (dopamine D1 receptor; [4]) [µM]	Ki (human D4.4; [5]) [µM]	Ki (5-HT2; [6]) [µM]	SMILES	Ki (human D2long, D2short; read-out: Ki D2; CHO cell membranes, [3H]spiperone; mean of two to five experiments in triplicate) [µM]	Ki (5-HT1A; read-out: Ki 5-HT1a, porcine cortex membranes, mean of two to five experiments in triplicate) [µM]	Ki (human D3; read-out: Ki D3, CHO cell membranes, mean of two to five experiments in triplicate) [µM]	Ki (dopamine D1 receptor; read-out: Ki D1, porcine striatum membranes, mean of two to five experiments in triplicate) [µM]	Ki (human D4.4; read-out: Ki D4.4, CHO cell membranes, mean of two to five experiments in triplicate) [µM]
0.501 to 5	0.501 to 5	< 0.05	> 5	0.501 to 5	> 5	0.05 to 0.5	–	Cc1ccc(CNCC2(F)CCN(C(=O)c3sc4sccc4c3Cl)CC2)nc1 [Example E28, 3-Chlorothieno[2,3-b]thion-2-yl-[4-fluoro-4-[[(5-methylpyridin-2-ylmothyl)amino]methyl]piperidin-1-yl]-mothanone]	–	–	–	–	–
–	–	< 0.05	–	–	–	–	> 5	Cc1ccc(CNCC2(F)CCN(C(=O)c3cc(Br)c(Br)o3)CC2)nc1 [Example E32, 4,5-Dibromofuran-2-yl-[4-fluoro-4-[[(5-mothylpyridin-2-ylmethyl)amino]methyl]piperidin-1-yl]-methanone]	–	–	–	–	–
0.501 to 5	> 5	< 0.05	> 5	> 5	> 5	0.501 to 5	–	Cc1ccc(CNCC2(F)CCN(C(=O)c3coc(Br)c3)CC2)nc1 [Example E34, 5-Bromofuran-3-yl-[4.fluoro-4-[[(5-methylpyridin-2-ylmethyl)amino]methyl]piperidin-1-yl]-methanone]	–	–	–	–	–
0.501 to 5	> 5	< 0.05	> 5	> 5	> 5	0.501 to 5	–	CSc1ccc(C(=O)N2CCC(F)(CNCc3ccc(C)cn3)CC2)s1 [Example E12, [4-Fluoro-4-[[(5-methylpyridin-2-ylmethyl)amino]methyl]piperidin-1-yl]-5-mothylthiothien-2-yl-methanone]	–	–	–	–	–
–	–	< 0.05	> 5	–	–	–	–	Cc1ccc(CNCC2(F)CCN(C(=O)c3ccc(F)s3)CC2)nc1 [Example E2]	–	–	–	–	–
0.501 to 5	> 5	< 0.05	> 5	0.501 to 5	> 5	0.501 to 5	–	Cc1ccc(CNCC2(F)CCN(C(=O)c3sc(Br)c4c3OCCO4)CC2)nc1 [Example E30, 7-Bromo-2,3-dihydrothieno[3,4-b][1,4]dioxin-5-yl-[4-fluoro-4-[[5-methylpyridin-2-ylmethyl)aminolmothyl]piperidin-1-yl]-methanone]	–	–	–	–	–
0.501 to 5	> 5	< 0.05	> 5	> 5	> 5	0.501 to 5	–	Cc1ccc(CNCC2(F)CCN(C(=O)c3cc4sccc4s3)CC2)nc1 [Example E26, [4-Fluoro-4-[[(5-methylpyridin-2-ylmethyl)amino]methyl]piperidin-1-yl]-thieno[3,2-b]thien-2-yl-mothanone]	–	–	–	–	–
–	–	< 0.05	–	–	–	–	> 5	Cc1ccc(CNCC2(F)CCN(C(=O)c3cc(Br)c(Br)s3)CC2)nc1 [Example E8, 4,5-Dibromothien-2-yl-[4-fluoro-4-[[(5-methylpyridin-2-ylmethyl)amino]methyl]-piperidin-1-yl]-methanone]	–	–	–	–	–
